Experimental data from patent US20030181436A1, “Treatment for AIDS, HIV, and other related diseases and compounds for use therewith” (priority 2001, published 2003).

Assays:
HIV = assay: HeLa CD4 LTR β-gal time of addition assay; format: cell-based; conditions: single round, high M.O.I.
Description: This time of addition assay measures reproducible events from initial virus binding to the trans activation of the β-galactosidase reporter by newly produced Tat protein. This is a single round of infection assay and is thus “cleaner” and more “precise” than a multi-round time of addition assay. […] Since it is hypothesized that the K and Z compounds work by interfering with virus transcription the later possibility seems more likely. Thus the use of a time of addition assay with PBMCs was utilized.

PBMCs = format: cell-based, Human
Description: Peripheral blood […] cells (PBMCs) were obtained from normal hepatitis B and C and HIV-1 negative donors by ficoll hypaque gradient separation. Briefly, anti-coagulated blood was diluted 1:1 with Dulbecco's phosphate buffered saline without Ca^+2 and Mg^+@ (PBS) and layered over 14 mL of Lymphocyte separation media in a 50 ml centrifuge tube. Tubes were then centrifuged for 30 minutes at 600×g. Banded PBLs were gently aspirated from the resulting interface and subsequently washed 2× with PBS by low speed centrifugation. The mononuclear cells were counted, viability determined by Trypan Blue dye exclusion and resuspended in RPMI 1640 medium supplemented with 15% FBS (heat inactivated), 2 mM L-glutamine, 100 U/mL penicillin, 100 μg/mL streptomycin, and 10 μg/mL gentamycin with 2 μg/mL phytohemagluttin (PHA) at 1×10^6 cells/mL. The cells were cultured for 48 to 72 h at 37° C., 5%, C^02. Following incubation, cells were collected by centrifugation, washed and resuspended in RPMI 1640 supplemented with 15% FBS (heat inactivated), 2 mM L-glutamine, 100 U/mL penicillin, 100 μg/mL streptomycin, and 10 μg/mL gentamycin with 40 U/mL, recombinant IL-2 (R & D Systems, Minneapolis, Minn.). IL-2 was included in the culture medium to maintain the cell division initiated by the PHA mitogenic stimulation. The cultures were then maintained until use by ½ culture volume change with fresh IL-2 containing medium every 3 days.
Human peripheral blood mononuclear cells from a minimum of 2 donors, that were blasted with PHA and IL-2, were counted, viability determined by Trypan Blue dye exclusion and mixed in equal ratios. Pooled donors were used to minimize the variability observed between individual donors which results from quantitative and qualitative differences in HIV infection and overall response to the PHA and IL-2 of primary lymphocyte populations. […] The assay was incubated for 6 days in a humidified atmosphere at 37° C., 5% CO2, the plates analyzed for cell viability by MTS dye reduction or incorporation of [^3H] metabolite incorporation.
[^3H]Uridine, [^3H] thymidine or [^3H]leucine incorporation were measured in the following manner. […] Incorporation was then determined on a Wallac Microbeta counter following lysis of the cells with H2O and capture on glass fiber filters using a Skatron harvester.
At assay termination the assay plates were stained with the soluble tetrazolium-based dye MTS (CellTiter® Reagent, Promega) to determined cell viability and quantify compound toxicity. MTS is metabolized by the mitochondria enzymes of metabolically active cells to a soluble formazan product, allowing the rapid quantitative analysis cell viability and compound cytotoxicity. […]

U1 cells = assay: U1 assay, compound toxicity by MTS dye reduction; format: cell-based; design: TC50: unit not given here
Description: At assay termination the assay plates were stained with the soluble tetrazolium-based dye MTS (CellTiter® Reagent, Promega) to determined cell viability and quantify compound toxicity. […] At termination of the assay 20 μL of MTS reagent was added per well. The wells were incubated for 4 h at 37° C., 5% CO2. Adhesive plate scalers were used in place of the lids, the sealed plate was inverted several times to mix the soluble formazan product and the plate was read spectrophotometrically at 490 nm with a 650 nm reference wavelength on a Molecular Devices Vmax plate reader.
U1 and ACH-2 cells were obtained from the AIDS Research and Reference Reagent Program and maintained under standard culture conditions in RPMI 1640 supplemented with 10% fetal bovine serum (heat inactivated), supplemented with 2 mM […], 100U/ml penicillin and 100 μg/ml, streptomycin. U1 cells were derived from the histocytic leukemia cell line U937, and contain a single integrated copy (HIV IIIB) […] a cytokine and/or phorbol inducible provirus. ACH-2 cells are derived from the A3.01 T lymphoblastic cell line, and contain 2 copies of the HIV IIIB provirus, however only one is cytokine and/or phorbol inducible. Cultures were maintained in such a way as to ensure exponential growth of the populations. At the time of the assay, cells were collected by centrifugation and counted by hemacytometer. If cell viability by Trypan Blue dye exclusion was less than 70% the assay was terminated. The cells were adjusted to 5×10^4 cells/mL and 100 μL, placed in 96 well plates with 100 μL media containing a final concentration of […] TNFα and the test compound. Cultures were incubated for 3 days and supernatants harvested. Compound toxicity was determined by MTS dye reduction. Virus expression was measured by supernatant reverse transcriptasc activity.

Question: For Potassium Iodiscorbate [Compound K], which “inhibition of HIV replication” value (HIV) is on record?
Answer: failed to inhibit

Question: What about the “TC50 in PBMCs by MTS” value (PBMCs) of the same substance?
Answer: 499 µg/mL

Question: What about the “non-toxic to PBMCs at concentrations” value (PBMCs) of the same substance?
Answer: above 400 μg/ml

Question: And the “protein (leucine incorporation) and RNA (uridine incorporation) production start to drop” value (PBMCs)?
Answer: above 32 μg/ml

Question: And the “% CC” value (U1 cells; 0.00063 μM, exp 2)?
Answer: 118.9%

Question: What about the “TOXICITY VALUES (MTS) MEAN” value (U1 cells; 0.00063 μM, exp 2) of the same substance?
Answer: 1.546 O. D.

Question: What about the “% CC” value (U1 cells; 0.002 μM, exp 2) of the same substance?
Answer: 119.4%

Question: What about the “TOXICITY VALUES (MTS) MEAN” value (U1 cells; 0.002 μM, exp 2) of the same substance?
Answer: 1.553 O. D.

Question: And the “% CC” value (U1 cells; 0.00625 μM, exp 2)?
Answer: 97.8%

Question: What about the “TOXICITY VALUES (MTS) MEAN” value (U1 cells; 0.00625 μM, exp 2) of the same substance?
Answer: 1.271 O. D.

Question: And the “% CC” value (U1 cells; 0.0625 μM, exp 2)?
Answer: 94.0%

Question: What about the “TOXICITY VALUES (MTS) MEAN” value (U1 cells; 0.0625 μM, exp 2) of the same substance?
Answer: 1.222 O. D.

Question: And the “% CC” value (U1 cells; 0.2 μM [c7], exp 2)?
Answer: 84.8%

Question: What about the “TOXICITY VALUES (MTS) MEAN” value (U1 cells; 0.2 μM [c7], exp 2) of the same substance?
Answer: 1.103 O. D.

Question: What about the “% CC” value (U1 cells; 0.2 μM [c9], exp 2) of the same substance?
Answer: 101.5%

Question: And the “TOXICITY VALUES (MTS) MEAN” value (U1 cells; 0.2 μM [c9], exp 2)?
Answer: 1.320 O. D.

Question: What about the “% CC” value (U1 cells; 0.625 μM, exp 2) of the same substance?
Answer: 93.4%

Question: What about the “TOXICITY VALUES (MTS) MEAN” value (U1 cells; 0.625 μM, exp 2) of the same substance?
Answer: 1.214 O. D.

Question: What about the “% CC” value (U1 cells; 2 μM, exp 2) of the same substance?
Answer: 89.1%

Question: And the “TOXICITY VALUES (MTS) MEAN” value (U1 cells; 2 μM, exp 2)?
Answer: 1.158 O. D.

Question: And the “% CC” value (U1 cells; 6.25 μM, exp 2)?
Answer: 83.3%

Question: What about the “TOXICITY VALUES (MTS) MEAN” value (U1 cells; 6.25 μM, exp 2) of the same substance?
Answer: 1.083 O. D.

Question: What about the “% CC” value (U1 cells; 20 μM, exp 2) of the same substance?
Answer: 70.3%

Question: And the “TOXICITY VALUES (MTS) MEAN” value (U1 cells; 20 μM, exp 2)?
Answer: 0.913 O. D.

Question: What about the “% CC” value (U1 cells; 62.5 μM, exp 2) of the same substance?
Answer: 80.8%

Question: What about the “TOXICITY VALUES (MTS) MEAN” value (U1 cells; 62.5 μM, exp 2) of the same substance?
Answer: 1.050 O. D.

Question: What about the “% CC” value (U1 cells; 200 μM, exp 2) of the same substance?
Answer: 26.3%

Question: And the “TOXICITY VALUES (MTS) MEAN” value (U1 cells; 200 μM, exp 2)?
Answer: 0.341 O. D.

Question: Which results are given for Zinc Iodiscorbate [Compound Z]?
Answer: inhibition of HIV replication (HIV): failed to inhibit; non-toxic to PBMCs at concentrations (PBMCs): above 400 μg/ml; TOXICITY VALUES MEAN (U1 cells; 0.00063 ug/ml, exp 2): 1.055 O. D.; % CC (U1 cells; 0.002 ug/ml, exp 2): 90.5%; TOXICITY VALUES MEAN (U1 cells; 0.002 ug/ml, exp 2): 0.963 O. D.; TOXICITY VALUES MEAN (U1 cells; 0.00625 ug/ml, exp 2): 1.103 O. D.; TOXICITY VALUES MEAN (U1 cells; 0.02 ug/ml, exp 2): 1.064 O. D.; TOXICITY VALUES MEAN (U1 cells; 0.0625 ug/ml, exp 2): 1.072 O. D.; TOXICITY VALUES MEAN (U1 cells; 0.2 ug/ml, exp 2): 1.031 O. D.; TOXICITY VALUES (MTS) MEAN (U1 cells; 0.625 ug/ml, exp 1): 1.791 O. D.; % CC (U1 cells; 0.625 ug/ml, exp 2): 81.6%; TOXICITY VALUES MEAN (U1 cells; 0.625 ug/ml, exp 2): 0.868 O. D.; TOXICITY VALUES (MTS) MEAN (U1 cells; 2 ug/ml, exp 1): 1.732 O. D.; % CC (U1 cells; 2 ug/ml, exp 2): 82.3%; TOXICITY VALUES MEAN (U1 cells; 2 ug/ml, exp 2): 0.876 O. D.; % CC (U1 cells; 6.25 ug/ml [c2], exp 2): 35.3%; TOXICITY VALUES MEAN (U1 cells; 6.25 ug/ml [c2], exp 2): 0.376 O. D.; TOXICITY VALUES MEAN (U1 cells; 6.25 ug/ml [c4], exp 2): 1.118 O. D.; TOXICITY VALUES (MTS) MEAN (U1 cells; 6.25 ug/ml, exp 1): 1.649 O. D.; % CC (U1 cells; 20 ug/ml, exp 1): 91.7%; TOXICITY VALUES (MTS) MEAN (U1 cells; 20 ug/ml, exp 1): 1.625 O. D.; % CC (U1 cells; 20 ug/ml, exp 2): 61.7%; TOXICITY VALUES MEAN (U1 cells; 20 ug/ml, exp 2): 0.658 O. D.; % CC (U1 cells; 62.5 ug/ml, exp 1): 77.8%; TOXICITY VALUES (MTS) MEAN (U1 cells; 62.5 ug/ml, exp 1): 1.379 O. D.; % CC (U1 cells; 200 ug/ml, exp 1): 3.6%; TOXICITY VALUES (MTS) MEAN (U1 cells; 200 ug/ml, exp 1): 0.063 O. D.; % CC (U1 cells; 200 ug/ml, exp 2): 7.1%; TOXICITY VALUES MEAN (U1 cells; 200 ug/ml, exp 2): 0.076 O. D.; TC50 (U1 cells; U1, experiment 1, Table 1): 114; TC50 (U1 cells; U1, experiment 2, Table 1): 39; U1 TC50 (U1 cells; exp 2): 38.8 µg/mL; U1 TC50 (U1 cells; exp 2, listed as COMPOUND Z): TC50 (uglml) = 38.80 μg/ml
